# Data published in patent publication US7812014B2, “Bicyclic 6-alkylidene-penems as β-lactamase inhibitors” (priority 2002, dated 2010).
# Structures can show the parent of a compound that is named as a salt. Where two headings read alike, the source gives them in different places.
# How the values were obtained:
# [1] = tested on: E. Coli GC22033; assay: Antimicrobial susceptibility testing, microbroth dilution, piperacillin + inhibitor; assay type: cell-based; conditions: piperacillin combined with constant 4 ug/ml of inhibitor; 35° C. for 18 hours
# Experimental: (§1) Antimicrobial susceptibility testing. The in vitro activities of the antibiotics were determined by the microbroth dilution method as recommended by the National Committee for Clinical Laboratory Standards (NCCLS). (NCCLS. 2000. Methods for Dilution Antimicrobial Susceptibility Tests for Bacteria That Grow Aerobically; Approved Standards: M7-A5, vol. 19. National Committe for Clinical Laboratory Standards, Villanova, Pa.). Mueller-Hinton II broth (MHBII) (BBL Cockeysville, Md.), was used for the testing procedure. Microtiter plates containing 50 μl per well of two-fold serial dilutions of piperacillin combined with a constant amount (4 ug/ml) of a B-lactamase inhibitor were inoculated with 50 μl of inoculum to yield the appropriate density (10^5 CFU/ml) in 100·I final volume. The plates were incubated for 18-22 hours at 35° C. in ambient air. […] The MIC data obtained by the above said procedure are enlisted in Table 2.
# [2] = tested on: E. Coli GC2844; assay: as above; assay type: cell-based; conditions: piperacillin combined with constant 4 ug/ml of inhibitor; 35° C. for 18 hours
# Experimental: as §1
# [3] = tested on: E. Coli GC2847 (TEM-1); assay: as above; assay type: cell-based; conditions: piperacillin combined with constant 4 ug/ml of inhibitor; 35° C. for 18 hours
# Experimental: as §1
# [4] = tested on: E. Coli GC2894 (Ampc); assay: as above; assay type: cell-based; conditions: piperacillin combined with constant 4 ug/ml of inhibitor; 35° C. for 18 hours
# Experimental: as §1
# [5] = tested on: E. Coli GC2920 (IRT-2); assay: as above; assay type: cell-based; conditions: piperacillin combined with constant 4 ug/ml of inhibitor; 35° C. for 18 hours
# Experimental: as §1
# [6] = tested on: E. Cloacae GC1477 (Ampc); assay: as above; assay type: cell-based; conditions: piperacillin combined with constant 4 ug/ml of inhibitor; 35° C. for 18 hours
# Experimental: (§2) Antimicrobial susceptibility testing. The in vitro activities of the antibiotics were determined by the microbroth dilution method as recommended by the National Committee for Clinical Laboratory Standards (NCCLS). (NCCLS. 2000. Methods for Dilution Antimicrobial Susceptibility Tests for Bacteria That Grow Aerobically; Approved Standards: M7-A5, vol. 19. National Committe for Clinical Laboratory Standards, Villanova, Pa.). Mueller-Hinton II broth (MHBII) (BBL Cockeysville, Md.), was used for the testing procedure. Microtiter plates containing 50 μl per well of two-fold serial dilutions of piperacillin combined with a constant amount (4 ug/ml) of a B-lactamase inhibitor were inoculated with 50 μl of inoculum to yield the appropriate density (10^5 CFU/ml) in 100·I final volume. The plates were incubated for 18-22 hours at 35° C. in ambient air.
# [7] = tested on: P. aeruginos GC1764 (Ampc); assay: as above; assay type: cell-based; conditions: piperacillin combined with constant 4 ug/ml of inhibitor; 35° C. for 18 hours
# Experimental: as §2
# [8] = tested on: S. Marcescens GC1781 Sme-1 + Ampc; assay: as above; assay type: cell-based; conditions: piperacillin combined with constant 4 ug/ml of inhibitor; 35° C. for 18 hours
# Experimental: as §2
# [9] = tested on: Clinical isolates that have been adapted to cause infection in mice; assay: In vivo antibacterial protection, 7 day survival of infected mice; design: species or system mice strain CD-1
# From the text: In Vivo Antibacterial Protection
# Female mice strain CD-1, approximately 18-22 grams, were received from Charles River Laboratories and quarantined 7 days prior to use. In addition, mice may be rendered neutropenic using cytoxan.
# Clinical isolates that have been adapted to cause infection in mice, are used in the experiment, including infections with strains of E. coli, K. pneumoniae, M. morganii, E. cloacae, S. marcescens, C. freundii, staphylococci, streptococci, P. aeruginosa and N. gonorrhoeae.
# Mice are challenged by injecting 0.5 ml intraperitoneally or 0.05 ml intranasally of a predetermined bacterial inoculum suspended in broth, saline or hog gastric mucin (supplemented with dried bovine hemoglobin for N. gonorrhoeae). […] Antibacterial doses (dose concentration prepared by two fold serial dilutions of the antibiotic) are dissolved or suspended in 0.2% aqueous agar or methocel, phosphate buffered saline or an adjuvant are administered orally, subcutaneously or intravenously in the following manner: • a) Orally or subcutaneously: Dose volume of 0.5 ml administered ½ hr after infection. A second dose may be administered 3 hr. after infection for treatment of infections with more virulent organisms. • b) Intravenously: Dose volume of 0.2 ml, administered ½ hr. after infection. For the treatment of infections with more virulent organisms, more doses, up to 48 hr may be administered. (Intravenous dosing will not exceed 3 doses/24 hr period.) • c) Oral pretreatment: Under special circumstances, the pH of the stomach needs to be adjusted in order to increase the gastric stability of the antibiotic. For this purpose, 0.5 ml of phosphate buffered saline (pH7.8, 0.06M) (or specific approved adjuvant) is administered orally ½ hr after infection, followed 5 minutes later by 0.5 ml of antibiotic (also orally) contained in phosphate buffered saline (pH7.8, 0.06M). Animal Species
# A detailed explanation as to the number of animals needed for the determination of in vivo efficacy follows: • A) Novel antibiotics are tested at 5 different dose levels with 5 mice per dose level at each of three routes of administration (oral, subcutaneous and intravenous). […] This would require 25 mice/route with 3 routes/antibiotic or 75 mice per novel compound tested. One to two novel antibiotics will be tested per experiment (75-150 mice) • B) The effectiveness of the new compound must be compared to that of a standard, or antibiotic of known effectiveness. Known or previously tested antibiotics are tested at 5 dose levels with 5 mice per dose level by a single route of administration, for a total of 25 mice/antibiotic. Usually 3-6 antibiotics will be tested per experiment. (75-150 mice). • C) Untreated controls—In each of the above tests, untreated animals are infected with 3 different concentrations of bacterial inoculum with 10 mice per concentration (30 mice total in each and every test). These untreated controls are used to determine and maintain the infection level between 10-100 LD50s as required for test to test comparison and validity. Determination of Protective Effects of Antibacterial Agents:
# The protective effects of the antibacterial agent(s) are measured by the survival of the infected untreated as compared to the treated animals. […] A census of survivors is taken twice daily and at that time dead as well as moribund animals are removed. […] The test is performed three times on separate days to provide a statistically valid number of animals and to minimize variation in test results on a day to day and test to test basis.
# [10] = molecular target: class A β-lactamase TEM-1 (Escherichia coli, UniProt P62593); assay: IC50 determination, β-lactamase inhibition (nitrocefin, spectrophotometric); assay type: biochemical, E. coli; conditions: enzyme 4.3 nM; 10 minutes preincubation at 25° C.; nitrocefin 50 μg/ml; pH 7.0
# Experimental: (§3) IC50 Determination for the Penem Inhibitor
# (§4) β-Lactamase inhibitory activity of the penem inhibitors was determined spectrophotometrically as described by Bush et al., [Bush, K., Macalintal, C., Rasmussen, B. A., Lee, V. and Yang, Y. Antimicrobial Agents and Chemotherapy 1993, 37, 851]. Homogeneously purified class A β-lactamases TEM-1 from E. coli and Imi-1 from Enterobacter cloacae, class B enzyme CcrA from Bacteroides fragilis and class C enzyme AmpC from Enterobacter cloaca were employed in the assay. The enzyme concentrations for TEM-1, Imi-1, CcrA and AmpC were 4.3, 7.1, 1.2 and 2.1 nM, respectively. A wide range of inhibitor concentrations were prepared in 50 mM PO4, pH 7.0 to include the possible IC50 values. The substrate used to initiate the enzyme reaction was nitrocefin at 50 μg/ml in the same buffer as the inhibitor. Initially the enzyme and inhibitor (20 μl each) were preincubated for 10 minutes at 25° C. prior to the addition of 160 μl volume of nitrocefin. Initial rates of hydrolysis were monitored for 5 minutes at 495 nm using a Molecular Devices Spectra Max 250 with kinetic protocol of SoftMax Program. Readings from the Spectra Max 250 were exported and transferred to Microsoft Excel. The percent of inhibition of each inhibitor concentration was calculated based on the control enzyme activity. The inhibitor concentration that caused a 50% reduction in the enzymatic activity (IC50) was determined graphically.
# [11] = molecular target: class A β-lactamase Imi-1 (Enterobacter cloacae, UniProt Q46991); assay: as above; assay type: biochemical
# Experimental: as §3, §4
# [12] = molecular target: class B enzyme CcrA (Bacteroides fragilis, UniProt P25910); assay: as above; assay type: biochemical; conditions: enzyme 1.2 nM; 10 minutes preincubation at 25° C.; nitrocefin 50 μg/ml; pH 7.0; read-out: IC50 (nM) Class B Ccr
# Experimental: as §3, §4
# [13] = molecular target: class C enzyme AmpC (Enterobacter cloacae, UniProt P05364); assay: biochemical; design: species or system Enterobacter cloaca
# Experimental: as §3, §4
# [14] = tested on: S. aureus GC2216; assay: Antimicrobial susceptibility testing, microbroth dilution, piperacillin + inhibitor; assay type: cell-based; conditions: piperacillin combined with constant 4 ug/ml of inhibitor; 35° C. for 18 hours
# Experimental: as §1
# [15] = Ratio of Piperacillin vs. Inhibitor not given
# [16] = enzyme 7.1 nM, 10 minutes preincubation at 25° C., nitrocefin 50 μg/ml, pH 7.0, read-out: IC50 (nM) Class A Imi
# [17] = enzyme 2.1 nM, 10 minutes preincubation at 25° C., nitrocefin 50 μg/ml, pH 7.0, read-out: IC50 (nM) Class C AmpC
# [18] = Mus musculus, 168 h, Ratio of Piperacillin vs. Inhibitor 4:1, read-out: ED50
# [19] = Mus musculus, 168 h, Ratio of Piperacillin vs. Inhibitor not given, read-out: ED50
# Sequence of class A β-lactamase Imi-1 (Q46991 28-292): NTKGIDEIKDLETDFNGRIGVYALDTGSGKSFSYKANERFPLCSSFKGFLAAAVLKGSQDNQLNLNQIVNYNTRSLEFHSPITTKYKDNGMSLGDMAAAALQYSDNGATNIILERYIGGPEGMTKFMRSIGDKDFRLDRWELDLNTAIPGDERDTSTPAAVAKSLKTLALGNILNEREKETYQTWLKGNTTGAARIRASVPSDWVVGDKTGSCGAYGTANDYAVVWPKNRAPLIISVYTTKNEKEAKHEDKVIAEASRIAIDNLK
# Sequence of class B enzyme CcrA (P25910 19-249): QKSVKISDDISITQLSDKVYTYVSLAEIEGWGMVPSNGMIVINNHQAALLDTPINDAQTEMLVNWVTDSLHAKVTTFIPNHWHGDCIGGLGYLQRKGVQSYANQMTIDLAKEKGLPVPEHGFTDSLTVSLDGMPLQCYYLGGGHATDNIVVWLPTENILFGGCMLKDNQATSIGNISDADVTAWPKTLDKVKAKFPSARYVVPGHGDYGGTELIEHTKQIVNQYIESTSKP
# Sequence of class C enzyme AmpC (P05364 21-381): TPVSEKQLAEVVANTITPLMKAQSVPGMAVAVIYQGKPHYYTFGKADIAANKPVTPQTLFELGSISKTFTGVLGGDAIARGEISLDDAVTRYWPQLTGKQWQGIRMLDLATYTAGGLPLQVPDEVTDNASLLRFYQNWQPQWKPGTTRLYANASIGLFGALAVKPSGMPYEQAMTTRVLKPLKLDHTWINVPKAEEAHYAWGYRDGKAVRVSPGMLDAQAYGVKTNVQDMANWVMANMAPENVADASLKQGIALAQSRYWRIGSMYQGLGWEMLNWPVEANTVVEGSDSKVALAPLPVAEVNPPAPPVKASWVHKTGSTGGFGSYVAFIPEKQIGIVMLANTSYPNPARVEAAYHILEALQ
# Sequence of class A β-lactamase TEM-1 (P62593 24-286 limits assumed): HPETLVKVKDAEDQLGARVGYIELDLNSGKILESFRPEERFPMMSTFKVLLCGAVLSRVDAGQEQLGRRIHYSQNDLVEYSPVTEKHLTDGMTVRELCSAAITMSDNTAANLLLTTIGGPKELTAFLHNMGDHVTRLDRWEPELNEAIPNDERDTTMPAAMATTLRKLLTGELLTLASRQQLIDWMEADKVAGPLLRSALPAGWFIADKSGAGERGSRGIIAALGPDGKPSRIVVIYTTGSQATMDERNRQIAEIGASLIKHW
structure (smiles),measurement,setting,value
"CN1Cc2nc(/C=C3/C(=O)N4C(C(=O)O)=CS[C@H]34)cn2CC1=O (as salt: sodium) [Example 10, (5R),(6Z)-6-(7-Methyl-6-oxo-5,6,7,8-tetrahydro-imidazo[1,2-a]pyrazin-2-ylmethylene)-7-oxo-4-thia-1-aza-bicyclo[3.2.0]hept-2-ene-2-carboxylic acid sodium salt]",melting point,,115 to 117 °C (dec.)
"CC(=O)N1CCc2sc(/C=C3/C(=O)N4C(C(=O)[O-])=CS[C@H]34)cc2C1.[Na+] (single isomer, unassigned) [Example 34]",Minimal Inhibitory Concentration E. Coli GC22033,[1],2 µg/mL
same,Minimal Inhibitory Concentration E. Coli GC2844,[2],4 µg/mL
same,Minimal Inhibitory Concentration E. Coli GC2847 (TEM-1),[3],32 µg/mL
same,Minimal Inhibitory Concentration E. Coli GC2894 (Ampc),[4],32 µg/mL
same,Minimal Inhibitory Concentration E. Coli GC2920 (IRT-2),[5],4 µg/mL
same,Minimal Inhibitory Concentration E. Cloacae GC1477 (Ampc),[6],>64 µg/mL
same,Minimal Inhibitory Concentration P. aeruginos GC1764 (Ampc),[7],32 µg/mL
same,Minimal Inhibitory Concentration S. Marcescens GC1781 Sme-1 + Ampc,[8],2 µg/mL
same,ED50,[9]; [15],32 mg/kg
"O=C(O)C1=CS[C@@H]2/C(=C\c3cc4c(s3)CCN(Cc3ccccc3)C4)C(=O)N12 [Example 1, (5R,6Z)-6-[(5-benzyl-4,5,6,7-tetrahydrothieno[3,2-c]pyridin-2-yl)methylene]-7oxo-4-thia-1-azabicyclo[3.2.0]hept-2-ene-2-carboxylic acid]",IC50,[10],4.2 nM
same,IC50,[11]; [16],2.1 nM
same,IC50,[12],260 nM
same,IC50,[13]; [17],12 nM
same,ED50,"[9]; Mus musculus, 168 h, Ratio of Piperacillin vs. Inhibitor 2:1, read-out: ED50",32 to 64 mg/kg
same,melting point,,198 °C
COc1ccc(CN2CCc3sc(/C=C4/C(=O)N5C(C(=O)O)=CS[C@H]45)cc3C2)cc1 [Example 4],Minimal Inhibitory Concentration E. Coli GC22033,[1],2 µg/mL
same,Minimal Inhibitory Concentration E. Coli GC2844,[2],2 µg/mL
same,Minimal Inhibitory Concentration E. Coli GC2847 (TEM-1),[3],8 µg/mL
same,Minimal Inhibitory Concentration E. Coli GC2894 (Ampc),[4],2 µg/mL
same,Minimal Inhibitory Concentration E. Coli GC2920 (IRT-2),[5],2 µg/mL
same,Minimal Inhibitory Concentration S. aureus GC2216,[14],0.50 µg/mL
same,Minimal Inhibitory Concentration E. Cloacae GC1477 (Ampc),[6],64 µg/mL
same,Minimal Inhibitory Concentration P. aeruginos GC1764 (Ampc),[7],32 µg/mL
same,Minimal Inhibitory Concentration S. Marcescens GC1781 Sme-1 + Ampc,[8],2 µg/mL
same,ED50,[9]; Ratio of Piperacillin vs. Inhibitor 4:1,32 to 64 mg/kg
O=C(O)C1=CS[C@@H]2/C(=C\c3cc4c(s3)CCN(C(=O)c3cccnc3)C4)C(=O)N12 [Example 22],IC50,[10],6.1 nM
same,IC50,[11]; [16],42 nM
same,IC50,[12],110 nM
same,IC50,[13]; [17],11 nM
same,ED50,[9]; [18],128 mg/kg
same,melting point,,195 °C
O=C(O)C1=CS[C@@H]2/C(=C\c3cc4c(s3)CCN(C(=O)Cc3ccccc3)C4)C(=O)N12 [Example 23],IC50,[10],4.6 nM
same,IC50,[11]; [16],40 nM
same,IC50,[12],140 nM
same,IC50,[13]; [17],7.8 nM
same,ED50,[9]; [18],128 mg/kg
same,melting point,,166 to 169 °C
"O=C([O-])C1=CS[C@@H]2/C(=C\c3cc4n(n3)CSC4)C(=O)N12.[Na+] [Example 31, (5R)(6Z)-7-Oxo-6-(4H-5-thia-1,6a-diazapentalen-2-ylmethylene)-4-thia-1-azabicyclo[3.2.0]hept-2-ene-2-carboxylic acid, sodium salt]",IC50,[10],1.4 nM
same,IC50,[11]; [16],56 nM
same,IC50,[12],110 nM
same,IC50,"[13]; read-out: IC50 (nM) Class C AmpC, pH 7",1.5 nM
same,ED50,[9]; [15],20 mg/kg
"O=C([O-])C1=CS[C@@H]2/C(=C\c3cc4n(n3)CCO4)C(=O)N12.[Na+] [Example 33, (5R)(6Z)-6-(2,3-Dihydropyrazolo[5,1-b]oxazol-6-ylmethylene)-7-oxo-4-thia-1-azabicyclo[3.2.0]hept-2-ene-2-carboxylic acid, sodium salt]",IC50,[10],1.1 nM
same,IC50,[11]; [16],59 nM
same,IC50,[12],41 nM
same,IC50,[13],0.85 nM
same,ED50,[9]; [19],> 64 mg/kg
"O=C(O)C1=CS[C@@H]2/C(=C\c3cc4n(n3)CCOC4)C(=O)N12 [Example 35, (5R,6Z)-6-(6,7-dihydro-4H-pyrazolo[5,1-c][1,4]oxazin-2-ylmethylene)-7-oxo-4-thia-1-azabicyclo[3.2.0]hept-2-ene-2-carboxylic acid]",IC50,[10],4.2 nM
same,IC50,[11],230 nM
same,IC50,[12],30 nM
same,IC50,[13]; [17],6.1 nM
same,ED50,[9]; [19],19 mg/kg
